Residues, ends and D or L forms follow the SMILES beside them. *: point of attachment. Cbz = O=C(OCc1ccccc1)*
Tested on: EGFP-SCOC (isoform 1 and 3) in HeLa Flp-In T-Rex cells
Test: Western blot of EGFP-SCOC protein levels with lysosomal or proteasomal inhibitors
Assay type: cell-based
Conditions: 7 h in full medium or EBSS, 10 µM MG132, 1 µM epoxymycin, 100 nM Bafilomycin A1
Experimental: To determine whether SCOC is functioning as an autophagy receptor and degraded by autophagy, we induced expression of EGFP-SCOC (isoform 1 and 3) in HeLa cells followed by 7 h EBSS starvation in the presence and absence of lysosomal or proteasomal inhibitors. […] Thus, both SCOC isoform1 and 3 are not turned over by autophagy, but by the proteasome.
HeLa Flp-In T-Rex cell lines expressing GFP-SCOC (isoform 1), GFP-SCOC (isoform 3), GFP-SCOC F14A/I17A (isoform 3) from a tetracycline inducible CMV promoter were made using the FlpIn T-Rex system (Thermofisher, R71407). pDest-EGFP-Flp-In SCOC iso1, pDest-EGFP-Flp-In SCOC iso3 and pDest-EGFP-Flp-In SCOC iso3 LIRm constructs were established by GATEWAY cloning into the pDEST-EGFP-FlpIn vector.[18] The HeLa-based Flp-In T-Rex host cell line (Invitrogen) contains a single integrated FRT site for insertion of selected constructs. To generate stable cell lines, Flp-In plasmids carrying the selected GFP-tagged constructs were co-transfected with pOG44 encoding the Flp-In recombinase in the ratio of 1:3. Cells were selected by treatment with 200 µg/ml Hygromycin B (Invitrogen, #10687010) and 7,5 µg/ml Blasticidine (Gibco, A1113903). Expression from the CMV-TetO2 promoter was induced by adding 0.5 μg/ml of tetracycline (Sigma, T7660) for 16 to 24 hours. HeLa Flp-In T-Rex cell lines were maintained in Dulbecco’s modified Eagle’s medium supplemented with 10% fetal calf serum, 4 mM l-glutamine, 1% streptomycin-penicillin, 100 µg/ml Hygromycin B, and 3.5 µg/ml Blasticitidine. Cells were treated as indicated with 100 nM Bafilomycin A1, 10 µM MG132, or 1 µM epoxomicin in full medium or Earle’s balanced salt solution (EBSS).
Cells were lysed in ice-cold TNTE buffer (20 mM Tris-HCl, pH 7.4, 150 mM NaCl, 0.5% w/v Triton X-100, 10% v/v glycerol, 5 mM EDTA) containing EDTA-free Complete Protease Inhibitor cocktail (Roche) and PhosSTOP (Roche). Lysates were cleared by centrifugation and resolved on NuPAGE Bis-Tris 4–12% gels (Life Technologies) followed by transfer onto a PVDF membrane (Millipore). […]

SMILES | SCOC isoform 1 and 3 protein levels
CO/C1=C\C(C)=C\[C@@H](C)[C@@H](O)[C@@H](C)C/C(C)=C/C=C/[C@H](OC)[C@@H]([C@@H](C)[C@@H](O)[C@H](C)[C@@]2(O)C[C@@H](O)[C@H](C)[C@@H](C(C)C)O2)OC1=O [BafilomycinA1] | did not have any effect
CC[C@H](C)[C@H](NC(=O)[C@H]([C@@H](C)CC)N(C)C(C)=O)C(=O)N[C@H](C(=O)N[C@@H](CC(C)C)C(=O)[C@@]1(C)CO1)[C@@H](C)O [epoxymycin] | increased
CC(C)C[C@@H](C=O)NC(=O)[C@H](CC(C)C)NC(=O)[C@H](CC(C)C)NC(=O)OCc1ccccc1 [MG132] (Cbz-Leu-Leu-Leu-aldehyde) | increased

From PMC8202330, “Phosphorylation of the LIR Domain of SCOC Modulates ATG8 Binding Affinity and Specificity” (Journal of Molecular Biology, 2021)
